# From US4459294A, “Phosphoric and thiophosphoric esters of 5(3)-hydroxypyrazoles exerting an insecticidal action” (priority 1977, dated 1984)
# Assays:
# [1] = test system: Blatta orientalis; test: Biological activity on Blatta orientalis (Ortoptera); type: in vivo; details: 0.1 g/m^2, 48 hours after start of treatment, read-out: percentage of reduction of the infestation (percentage mortality), Blatta
# Protocol: Biological activity on Blatta orientalis (Ortoptera)
# The bottom and side walls of glass beakers were treated uniformly with an acetonic solution of the products under examination. After evaporation of the solvent in each beaker, into the same were then introduced ten, 80-100 days old neanides, whereafter they were closed with a lid of metal netting. After 24 hours from the beginning of the treatment, the insects were transferred into untreated glass beakers, and suitably nourished. The percentage mortality (untreated insects=0) was determined 48 hours after the start of the treatment.
# [2] = test system: Macrosiphum euphorbiae; test: Biological activity on Macrosiphum euphorbiae (aphides); type: in vivo; set-up: tested at 0.01 permill; details: 0.01 permill.; 24 hours after treatment
# Protocol: Biological activity on Macrosiphum euphorbiae (aphides)
# Small potato plants grown in pots were infested with adult female aphides and, after several hours, were sprinkled with an aqueous dispersion of the products under examination.
# The percentage death rate was determined 24 hours after treatment (untreated plants=0).
# [3] = test system: Musca domestica; test: Biological activity on Musca domestica (Diptera), topical application; type: in vivo; details: 0.5 γ/ins, 24 hours after treatment
# Protocol: Biological activity on Musca domestica (Diptera)
# 4-days old adults were treated, by topical application by microsyringe, with an acetonic solution of the products under examination.
# The mortality percentage (insects treated with acetone only=0) was determined 24 hours after the treatment.
# [4] = test system: Spodoptera littoralis; test: Biological activity on Spodoptera littoralis (Lepidoptera), 5-days old larvae; type: in vivo; details: 0.1 permill.; 48 hours after treatment
# Protocol: Biological activity on Spodoptera littoralis (Lepidoptera)
# Cut tobacco leaves were sprinkled with an aqueous dispersion of the products under examination. After drying, the leaves were infested with 5-days old larvae. The percentage mortality of the larvae was determined 48 hours after treatment (untreated leaves, mortality=0).
# [5] = Toxicity by os on rats; details: rat, in vivo, po
# [6] = test system: Culex pipiens larvae; test: Biological activity on Culex pipiens (diptera) larvae; type: in vivo; details: 24 hours after treatment, read-out: percentage of reduction of the infestation (percentage death rate), Culex larvae
# Protocol: Biological activity on Culex pipiens (diptera) larvae
# Into glasses containing an aqueous dispersion of the products under examination, were introduced third and fourth age mosquito larvae. The percentage death rate of the larvae (glasses containing pure water=0) was determined 24 hours after treatment.
# [7] = test system: Pieris brassicae; test: Biological activity on Pieris brassicae (Lepitoptera), 5-day old larvae; type: in vivo; details: 0.1 permill.; 48 hours after treatment
# Protocol: Biological activity on Pieris brassicae (Lepitoptera)
# Cut cauliflower leaves were sprinkled with an aqueous dispersion of the products under examination. After drying, the leaves were infested with 5-day old larvae. The percentage death rate of the larvae (untreated leaves=0) was determined 48 hours after treatment.
# [8] = test system: Culex pipiens adults; test: Biological activity on Culex pipiens (Diptera): adults; type: in vivo; details: 0.2 g/m^2, 24 hours after beginning of treatment, read-out: percentage of reduction of the infestation (mortality percentage), Culex ad.
# Protocol: Biological activity on Culex pipiens (Diptera): adults
# Whatman n°1 paper rectangles were treated uniformly with an acetonic solution of the products under examination. After evaporation of the solvent, each treated paper rectangle was used to line the inside wall of a perspex cylinder (model OMS). The paper-lined perspex cylinder was then closed with a net after having introduced into it 2-3 days old adult females. After one hour from the start of the contact, the insects were transferred into a similar cylinder likewise lined with untreated paper, and were fed with a sugary solution.
# The mortality percentage (untreated insects=0) was determined 24 hours after the beginning of the treatment.
# [9] = test system: Leptinatarsa decomlineata; test: Biological activity on Leptinatarsa decomlineata (Coledptera), 4-day old larvae; type: in vivo; details: 0.1 permill.; 48 hours after treatment
# Protocol: Biological activity on Leptinatarsa decomlineata (Coledptera)
# Small, pot-grown potato-plants were infested with 4-day old larvae, and then were sprinkled with an aqueous dispersion of the products under examination. The percentage death rate (untreated plants=0) was determined 48 hours after treatment.
# [10] = test system: Tetranychus urticae; test: Biological activity on Tetranychus urticae (Acari) adults; type: in vivo; details: 0.01 permill.; 24 hours after treatment
# Protocol: Biological Activity on Tetranychus urticae (Acari) adults
# Small bean leaf discs were infected with adult acari and were then sprinkled with an aqueous dispersion of the products under examination. The percentage of mortality was determined 24 hours after the treatment (untreated discs, mortality=0).
# [11] = test system: Meloidogyne incognita; test: Biological activity on Meloidogyne incognita (Nematoda); type: in vivo; details: 20 ppm; 21 days after transplanting
# Protocol: Biological activity on Meloidogyne incognita (Nematoda)
# Aliquot parts of a 1:1 mixture of field soil and sand, infested by Nematoda larvae and eggs, were treated by uniformly mixing same with an aqueous dispersion of the products under examination. The soil was then distributed into plastic pots, and after 5 days into each pot there were transplanted 5 tomato plants about 20 cm high. The survey of the results was carried out 21 days after the transplanting, by observing the roots of the plants extracted from the soil in order to ascertain the degree of infestation by counting the galls that have formed on them. The nematocide activity was expressed as a percentage of reduction of the infestation with respect to the witness plant (small plants transplanted into untreated soil, activity=0).
SMILES,mortality at 0.1 g/m2 [1] [%],"percentage of reduction of the infestation (percentage death rate), Macrosiph. E. [2] [%]","percentage of reduction of the infestation (mortality percentage), Musca d. [3] [%]","percentage of reduction of the infestation (percentage mortality of larvae), Spodoptera L [4] [%]",LD50 [5] [mg/kg],mortality at 0.2 ppm [6] [%],"percentage of reduction of the infestation (percentage death rate of larvae), Pieris B [7] [%]",mortality at 0.2 g/m2 [8] [%],"percentage of reduction of the infestation (percentage death rate), Leptinot D. [9] [%]","percentage of reduction of the infestation (percentage of mortality), Tetran U. [10] [%]","percentage of reduction of the infestation, Meloidog. I. [11] [%]"
CCOP(=S)(OCC)Oc1cc(Cl)nn1-c1ccccc1 [Compound 2],100,40,100,100,33,100,100,100,97,,
CCOP(=S)(OCC)Oc1cc(Cl)nn1CC [Compound 3],100,98,100,82,,100,100,100,100,100,96
CCOP(=S)(OCC)Oc1cc(Cl)nn1CCC#N [Compound 7],100,100,100,100,,100,100,70,100,100,100
CCOP(=S)(OCC)Oc1cc(C=C(Cl)Cl)nn1CCC#N [Compound 9],100,85,100,100,,100,100,0,100,85,
CCOP(=S)(OCC)Oc1cc(Cl)n[nH]1 [Compound 11],,,,,70,,,,,,
CCn1nc(Cl)cc1OP(=S)(OC)OC [Compound 21],100,100,100,70,,100,100,100,100,100,100
CCOP(=S)(OC)Oc1cc(Cl)nn1CC (stereo not shown) [Compound 24],100,96,100,90,,100,100,100,100,100,62
CCOP(=S)(OCC)Oc1cc(Cl)nn1Cc1ccccc1 [Compound 29],100,60,100,100,,100,100,5,100,100,59
CCOP(=S)(NC(C)C)Oc1cc(Cl)nn1C (stereo not shown) [Compound 49],100,81,100,15,,100,100,100,100,63,
CCOP(=S)(OC)Oc1cc(Cl)n(-c2ccc([N+](=O)[O-])cc2)n1 (stereo not shown) [Compound 51],,51,100,100,,100,100,0,85,94,82
CCOP(=S)(OCC)Oc1cc(Cl)n(-c2ccc([N+](=O)[O-])cc2)n1 [Compound 52],100,54,100,95,,100,100,0,37,96,96
